# Results reported in ChEMBL document CHEMBL4334471, “Discovery of 1,8-disubstituted-[1,2,3]triazolo[4,5-c]quinoline derivatives as a new class of Hippo signaling pathway inhibitors” (Bioorg Med Chem Lett, 2019).
# Tests used:
# [1] = system: Dual specificity protein kinase TTK (Homo sapiens), P33981 [S389A]; assay: Inhibition of recombinant full-length human TTK S389A mutant assessed as residual activity at 10 uM using MBP as substrate incubated for 40 mins in presence of [gamma33P]ATP by scintillation counting based radiometry assay relative to control
# [2] = target: Protein-tyrosine kinase 2-beta (Homo sapiens) (UniProt Q14289); assay: Inhibition of recombinant human full length PYK2 assessed as residual activity at 10 uM using poly(Glu, Tyr) 4:1 as substrate incubated for 40 mins in presence of [gamma33P]ATP by scintillation counting based radiometry assay relative to control
# Protein-tyrosine kinase 2-beta (Homo sapiens), sequence (Q14289 whole entry, looked up): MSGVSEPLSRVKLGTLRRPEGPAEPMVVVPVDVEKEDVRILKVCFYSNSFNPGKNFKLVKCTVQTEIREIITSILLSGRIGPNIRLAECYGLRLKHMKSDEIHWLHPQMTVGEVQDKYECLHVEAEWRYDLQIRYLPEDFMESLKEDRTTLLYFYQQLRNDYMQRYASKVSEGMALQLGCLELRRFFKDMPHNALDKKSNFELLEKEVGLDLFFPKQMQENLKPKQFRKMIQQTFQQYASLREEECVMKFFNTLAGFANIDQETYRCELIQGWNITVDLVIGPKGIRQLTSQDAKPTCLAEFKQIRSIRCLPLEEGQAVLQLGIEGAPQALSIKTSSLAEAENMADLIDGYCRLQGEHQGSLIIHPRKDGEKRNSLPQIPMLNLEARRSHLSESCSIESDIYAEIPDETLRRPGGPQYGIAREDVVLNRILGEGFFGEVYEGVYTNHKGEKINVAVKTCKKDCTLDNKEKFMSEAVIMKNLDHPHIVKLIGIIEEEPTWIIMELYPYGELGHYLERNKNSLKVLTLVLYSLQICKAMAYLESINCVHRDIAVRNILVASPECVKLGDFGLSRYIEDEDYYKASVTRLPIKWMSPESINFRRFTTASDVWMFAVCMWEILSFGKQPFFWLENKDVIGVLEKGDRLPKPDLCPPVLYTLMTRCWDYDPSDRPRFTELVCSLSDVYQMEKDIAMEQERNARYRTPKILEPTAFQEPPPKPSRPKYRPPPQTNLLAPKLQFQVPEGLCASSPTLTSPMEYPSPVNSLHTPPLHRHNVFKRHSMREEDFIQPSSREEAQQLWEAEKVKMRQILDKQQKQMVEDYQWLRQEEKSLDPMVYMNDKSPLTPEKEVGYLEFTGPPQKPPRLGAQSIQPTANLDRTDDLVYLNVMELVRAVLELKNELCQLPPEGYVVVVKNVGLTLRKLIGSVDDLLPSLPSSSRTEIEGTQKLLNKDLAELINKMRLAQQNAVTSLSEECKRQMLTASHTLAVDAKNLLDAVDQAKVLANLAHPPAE
# [3] = target: Insulin-like growth factor 1 receptor (Homo sapiens) (UniProt P08069); assay: Inhibition of human IGF1R (959 to end residues) assessed as residual activity at 10 uM using KKKSPGEYVNIEFGF as substrate after 40 mins by [gamma-33ATP] radiometric assay relative to control
# [4] = target: Activin receptor type-2A (Homo sapiens) (UniProt P27037); assay: Inhibition of human ACTR2 (162 to end residues) assessed as residual activity at 10 uM using casein as substrate incubated for 120 mins in presence of [gamma-33ATP] by scintillation counting based radiometry assay relative to control
# Activin receptor type-2A (Homo sapiens), sequence (P27037 whole entry, the tested form may be a part): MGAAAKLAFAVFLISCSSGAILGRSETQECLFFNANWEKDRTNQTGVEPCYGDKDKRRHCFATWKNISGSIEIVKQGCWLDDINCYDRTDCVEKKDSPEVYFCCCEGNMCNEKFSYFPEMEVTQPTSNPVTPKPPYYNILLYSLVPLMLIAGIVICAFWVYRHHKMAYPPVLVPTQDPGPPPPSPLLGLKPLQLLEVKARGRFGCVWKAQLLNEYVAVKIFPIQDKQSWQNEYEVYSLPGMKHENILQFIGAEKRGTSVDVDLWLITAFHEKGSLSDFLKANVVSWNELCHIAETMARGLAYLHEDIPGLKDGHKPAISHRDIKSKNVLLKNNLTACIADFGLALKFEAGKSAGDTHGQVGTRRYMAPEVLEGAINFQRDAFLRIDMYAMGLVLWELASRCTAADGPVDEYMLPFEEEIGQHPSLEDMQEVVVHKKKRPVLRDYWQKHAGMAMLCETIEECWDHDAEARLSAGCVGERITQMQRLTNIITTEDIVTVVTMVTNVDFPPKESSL
# [5] = target: Ephrin type-A receptor 7 (Homo sapiens) (UniProt Q15375); assay: Inhibition of recombinant human EphA7 (613 to 909 residues) assessed as residual activity at 10 uM using KTFCGTPEYLAPEVRREPRILSEEEQEMFRDFDYIADWC as substrate at 40 mins in presence of [gamma-33ATP] by scintillation counting based radiometry assay relative to control
# [6] = species on record: Homo sapiens; assay: Inhibition of recombinant human FLT4 V1128L/H1146R mutant (800 to end residues) assessed as residual activity at 10 uM using GGEEEEYFELVKKKK as substrate at 40 mins in presence of [gamma-33ATP] by scintillation counting based radiometry assay relative to control
# [7] = target: Serine/threonine-protein kinase 3 (Homo sapiens, UniProt Q13188); assay: Inhibition of recombinant human MST2 (2 to end residues) assessed as residual activity using myelin basic protein as substrate measured after 40 mins in presence of [gamma33P]ATP by scintillation counting based radiometry assay
# [8] = target: Serine/threonine-protein kinase tousled-like 1 (Homo sapiens) (UniProt Q9UKI8); assay: Inhibition of recombinant full-length human TLK1 assessed as residual activity at 10 uM using casein as substrate incubated for 40 mins in presence of [gamma33P]ATP by scintillation counting based radiometry assay relative to control
# [9] = target: MAP/microtubule affinity-regulating kinase 4 (Homo sapiens) (UniProt Q96L34); assay: Inhibition of recombinant full length human MARK4 assessed as residual activity at 10 uM using KKKVSRSGLYRSPSMPENLNRPR as substrate incubated for 40 mins in presence of [gamma-33ATP by scintillation counting based radiometry assay relative to control
# [10] = target: Serine/threonine-protein kinase 32A (Homo sapiens) (UniProt Q8WU08); assay: Inhibition of recombinant human full length STK32A assessed as residual activity at 10 uM using casein as substrate incubated for 40 mins in presence of [gamma33P]ATP by scintillation counting based radiometry assay relative to control
# Serine/threonine-protein kinase 32A (Homo sapiens), sequence (Q8WU08 whole entry): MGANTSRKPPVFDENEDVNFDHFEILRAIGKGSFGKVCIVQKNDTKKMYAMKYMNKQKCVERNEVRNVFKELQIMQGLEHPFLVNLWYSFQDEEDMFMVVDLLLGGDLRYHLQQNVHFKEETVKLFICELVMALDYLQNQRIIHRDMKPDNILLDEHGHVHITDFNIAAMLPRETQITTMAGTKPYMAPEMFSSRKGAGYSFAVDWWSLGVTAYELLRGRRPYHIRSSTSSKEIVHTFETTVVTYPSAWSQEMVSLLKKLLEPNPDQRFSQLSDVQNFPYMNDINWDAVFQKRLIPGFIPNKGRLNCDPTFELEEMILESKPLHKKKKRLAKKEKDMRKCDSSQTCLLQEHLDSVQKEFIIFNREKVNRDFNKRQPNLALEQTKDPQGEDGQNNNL
# [11] = target: Eukaryotic translation initiation factor 2-alpha kinase 3 (Homo sapiens) (UniProt Q9NZJ5); assay: Inhibition of human PEK (536 to end residues) assessed as residual activity at 10 uM using RSRSRSRSRSRSRSR as substrate measured after 40 mins in presence of [gamma33P]ATP by scintillation counting based radiometry assay relative to control
# [12] = target: Testis-specific serine/threonine-protein kinase 1 (Homo sapiens) (UniProt Q9BXA7); assay: Inhibition of recombinant full-length human TSSK1 assessed as residual activity at 10 uM using KKKVSRSGLYRSPSMPENLNRPR as substrate incubated for 40 mins in presence of [gamma33P]ATP by scintillation counting based radiometry assay relative to control
# Testis-specific serine/threonine-protein kinase 1 (Homo sapiens), sequence (Q9BXA7 whole entry): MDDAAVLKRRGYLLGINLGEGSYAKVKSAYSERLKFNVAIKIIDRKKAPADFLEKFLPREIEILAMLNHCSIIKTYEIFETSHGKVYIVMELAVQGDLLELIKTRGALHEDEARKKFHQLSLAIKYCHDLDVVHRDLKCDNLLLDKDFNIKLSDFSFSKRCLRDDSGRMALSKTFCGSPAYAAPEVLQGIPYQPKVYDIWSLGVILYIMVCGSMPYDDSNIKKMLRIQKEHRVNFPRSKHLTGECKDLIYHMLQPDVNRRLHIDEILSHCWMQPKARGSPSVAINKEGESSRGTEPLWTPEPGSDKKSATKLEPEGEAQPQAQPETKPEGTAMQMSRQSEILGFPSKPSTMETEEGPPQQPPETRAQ
# [13] = target: Mitogen-activated protein kinase 14 (Homo sapiens) (UniProt Q16539); assay: Inhibition of recombinant human full length SAPK2a assessed as residual activity at 10 uM using myelin basic protein as substrate incubated for 40 mins in presence of [gamma33P]ATP by scintillation counting based radiometry assay relative to control
# Mitogen-activated protein kinase 14 (Homo sapiens), sequence (Q16539 whole entry): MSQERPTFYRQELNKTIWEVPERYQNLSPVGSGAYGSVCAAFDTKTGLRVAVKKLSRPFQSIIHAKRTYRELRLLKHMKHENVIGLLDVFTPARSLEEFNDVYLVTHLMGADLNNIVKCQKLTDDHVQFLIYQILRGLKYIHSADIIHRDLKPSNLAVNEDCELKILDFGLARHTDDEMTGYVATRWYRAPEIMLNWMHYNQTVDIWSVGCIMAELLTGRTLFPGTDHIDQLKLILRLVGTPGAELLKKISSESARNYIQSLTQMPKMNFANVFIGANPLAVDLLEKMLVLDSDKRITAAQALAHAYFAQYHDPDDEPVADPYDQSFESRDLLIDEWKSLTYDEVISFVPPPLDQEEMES
# [14] = target: Serine/threonine-protein kinase PAK 4 (Homo sapiens) (UniProt O96013); assay: Inhibition of recombinant human PAK4 (295 to end residues) assessed as residual activity at 10 uM using myelin basic protein as substrate measured after 40 mins in presence of [gamma33P]ATP by scintillation counting based radiometry assay relative to control
# [15] = target: Calcium/calmodulin-dependent protein kinase type 1 (Homo sapiens) (UniProt Q14012); assay: Inhibition of recombinant human CaMKIalpha (2 to end residues) assessed as residual activity at 10 uM using […] incubated for 40 mins in presence of [gamma-33ATP] by scintillation counting based radiometry assay relative to control
# Calcium/calmodulin-dependent protein kinase type 1 (Homo sapiens), sequence (Q14012 whole entry, looked up): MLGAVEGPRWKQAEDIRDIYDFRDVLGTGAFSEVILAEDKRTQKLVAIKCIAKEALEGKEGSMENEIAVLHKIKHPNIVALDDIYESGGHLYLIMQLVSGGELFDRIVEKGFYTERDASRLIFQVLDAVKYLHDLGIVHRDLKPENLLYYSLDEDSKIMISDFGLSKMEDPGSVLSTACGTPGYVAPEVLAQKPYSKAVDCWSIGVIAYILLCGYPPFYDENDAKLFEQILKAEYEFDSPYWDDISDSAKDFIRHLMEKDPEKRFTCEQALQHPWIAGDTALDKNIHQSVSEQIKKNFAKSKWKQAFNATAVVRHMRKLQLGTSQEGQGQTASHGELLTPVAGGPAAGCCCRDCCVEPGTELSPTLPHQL
# [16] = target: Serine/threonine-protein kinase MARK2 (Homo sapiens) (UniProt Q7KZI7); assay: Inhibition of recombinant full-length human PAR1Balpha assessed as residual activity at 10 uM using KKKVSRSGLYRSPSMPENLNRPR as substrate measured after 40 mins in presence of [gamma33P]ATP by scintillation counting based radiometry assay relative to control
# [17] = system: Protein kinase C eta type (Homo sapiens), P24723 [UNDEFINED MUTATION]; assay: Inhibition of recombinant human PKCeta V108L/G109R/L392Q mutant (2 to end residues) assessed as residual activity at 10 uM using ERMRPRKRQGSVRRRV as substrate incubated for 40 mins in presence of [gamma33P]ATP by scintillation counting based radiometry assay relative to control
# Protein kinase C eta type (Homo sapiens), P24723 [UNDEFINED MUTATION], sequence (P24723 whole entry, looked up, stated change not applied, the tested form may be a part): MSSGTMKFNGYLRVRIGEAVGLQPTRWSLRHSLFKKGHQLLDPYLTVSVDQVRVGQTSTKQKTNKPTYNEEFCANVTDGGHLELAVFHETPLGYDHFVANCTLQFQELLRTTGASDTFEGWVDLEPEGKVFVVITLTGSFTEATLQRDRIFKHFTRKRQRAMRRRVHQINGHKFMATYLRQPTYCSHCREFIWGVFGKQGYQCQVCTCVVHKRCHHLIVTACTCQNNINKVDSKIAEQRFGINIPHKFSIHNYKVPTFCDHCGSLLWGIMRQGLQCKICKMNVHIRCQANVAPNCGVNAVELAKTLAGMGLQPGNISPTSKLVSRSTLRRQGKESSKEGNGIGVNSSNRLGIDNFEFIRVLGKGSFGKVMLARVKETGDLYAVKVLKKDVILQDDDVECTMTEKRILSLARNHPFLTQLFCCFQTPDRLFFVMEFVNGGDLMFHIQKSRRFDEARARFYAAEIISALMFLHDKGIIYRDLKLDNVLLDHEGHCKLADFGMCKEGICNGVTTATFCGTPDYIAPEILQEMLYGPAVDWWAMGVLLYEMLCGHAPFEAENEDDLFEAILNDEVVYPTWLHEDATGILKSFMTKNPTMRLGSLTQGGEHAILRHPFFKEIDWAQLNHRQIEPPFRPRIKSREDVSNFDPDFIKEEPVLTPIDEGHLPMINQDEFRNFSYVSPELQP
# [18] = target: Proto-oncogene tyrosine-protein kinase Src (Homo sapiens) (UniProt P12931); assay: Inhibition of recombinant human SRC (1 to 530 residues) assessed as residual activity at 10 uM using GGEEEEYFELVKK as substrate incubated for 40 mins in presence of [gamma33P]ATP by scintillation counting based radiometry assay relative to control
# Proto-oncogene tyrosine-protein kinase Src (Homo sapiens), sequence (P12931 2-536 limits assumed): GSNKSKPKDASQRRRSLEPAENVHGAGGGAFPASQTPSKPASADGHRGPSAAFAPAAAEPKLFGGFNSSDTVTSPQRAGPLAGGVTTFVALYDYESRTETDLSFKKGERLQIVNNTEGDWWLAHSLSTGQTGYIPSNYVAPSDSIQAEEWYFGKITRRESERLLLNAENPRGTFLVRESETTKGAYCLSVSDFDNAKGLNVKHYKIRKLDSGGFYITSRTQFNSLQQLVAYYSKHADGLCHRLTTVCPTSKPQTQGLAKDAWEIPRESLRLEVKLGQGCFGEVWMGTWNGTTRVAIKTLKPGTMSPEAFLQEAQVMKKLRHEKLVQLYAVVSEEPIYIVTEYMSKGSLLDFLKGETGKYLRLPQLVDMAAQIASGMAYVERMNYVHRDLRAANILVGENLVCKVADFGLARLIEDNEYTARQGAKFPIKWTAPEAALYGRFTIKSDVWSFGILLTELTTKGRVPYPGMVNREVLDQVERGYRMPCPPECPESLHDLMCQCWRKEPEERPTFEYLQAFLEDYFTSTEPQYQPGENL
# [19] = target: Calcium/calmodulin-dependent protein kinase type IV (Homo sapiens) (UniProt Q16566); assay: Inhibition of recombinant full length human CaMK4 assessed as residual activity at 10 uM using […] incubated for 40 mins in presence of [gamma-33ATP] by scintillation counting based radiometry assay relative to control
# [20] = target: Serine/threonine-protein kinase SIK2 (Homo sapiens) (UniProt Q9H0K1); assay: Inhibition of recombinant human SIK2 (1 to 276 residues) assessed as residual activity at 10 uM using KKKVSRSGLYRSPSMPENLNRPR as substrate incubated for 40 mins in presence of [gamma33P]ATP by scintillation counting based radiometry assay relative to control
# [21] = system: Ribosomal protein S6 kinase alpha-1 (Rattus norvegicus), Q63531 [S637N,G697A]; assay: Inhibition of recombinant full length rat Rsk1 S637N/G697A mutant assessed as residual activity at 10 uM using KKKNRTLSVA as substrate incubated for 40 mins in presence of [gamma33P]ATP by scintillation counting based radiometry assay relative to control
# Ribosomal protein S6 kinase alpha-1 (Rattus norvegicus), Q63531 [S637N,G697A], sequence (Q63531 whole entry S637N/G697A): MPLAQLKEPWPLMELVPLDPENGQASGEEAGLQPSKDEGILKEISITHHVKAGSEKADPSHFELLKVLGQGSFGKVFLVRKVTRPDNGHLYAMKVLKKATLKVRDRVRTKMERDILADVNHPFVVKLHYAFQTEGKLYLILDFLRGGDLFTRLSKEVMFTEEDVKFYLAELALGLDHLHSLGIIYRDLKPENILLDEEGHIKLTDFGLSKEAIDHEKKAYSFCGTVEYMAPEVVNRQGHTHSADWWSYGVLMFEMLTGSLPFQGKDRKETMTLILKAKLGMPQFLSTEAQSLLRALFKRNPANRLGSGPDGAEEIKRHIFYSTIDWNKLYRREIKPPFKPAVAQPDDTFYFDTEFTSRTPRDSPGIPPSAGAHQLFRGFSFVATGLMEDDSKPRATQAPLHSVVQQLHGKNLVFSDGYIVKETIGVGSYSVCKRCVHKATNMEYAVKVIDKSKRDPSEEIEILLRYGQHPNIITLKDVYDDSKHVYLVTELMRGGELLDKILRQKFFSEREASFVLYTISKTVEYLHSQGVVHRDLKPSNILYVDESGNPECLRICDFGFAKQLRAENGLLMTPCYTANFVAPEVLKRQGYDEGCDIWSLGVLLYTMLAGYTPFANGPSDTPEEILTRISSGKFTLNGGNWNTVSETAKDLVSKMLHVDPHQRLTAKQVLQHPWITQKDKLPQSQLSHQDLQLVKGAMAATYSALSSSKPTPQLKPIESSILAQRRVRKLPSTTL
compound,measurement,setting,value
C[C@@H](c1ccccc1)n1nnc2cnc3ccc(-c4cnc5[nH]ccc5c4)cc3c21,Activity,[1],2%
same,Activity,[2],59%
same,Activity,[3],50%
same,Activity,[4],101%
same,Activity,[5],86%
same,Activity,[6],13%
same,IC50,[7],> 10 µM
same,Activity,[8],99%
same,Activity,[9],89%
same,Activity,[10],95%
same,Activity,[11],94%
same,Activity,[12],74%
same,Activity,[13],105%
same,Activity,[14],88%
same,Activity,[15],28%
same,Activity,[16],85%
same,Activity,[17],82%
same,Activity,[18],15%
same,Activity,[19],39%
same,Activity,[20],7%
same,Activity,[21],71%
